Holding throughout (assay type): in vivo, rat
The test system of assay [1] is STZ-induced diabetic rats. Description: Electroretinogram, oscillatory potentials (OPs). As to conditions: curcumin 0.01% diet; D 334.2. The method, then:
Experimental design: Male Wistar-NIN rats with an average body weight of 120 gms are obtained from the National center for laboratory animal sciences, National institute of Nutrition, Hyderabad (NCLAS, NIN). Animals were maintained at NCLAS, MN and kept for acclimatization in an experimental room for two weeks. Diabetes was induced in overnight fasted animals by a single intraperitoneal injection of STZ (30 mg/kg) in 0.1 M citrate buffer, pH 4.5. Another set of rats, which received only a vehicle, served as the control (Group-C; n=6). Fasting blood glucose levels were measured 72 h after STZ injection. Animals having blood glucose levels >150 mg/dL were considered diabetic and all the animals are divided into four groups as shown in the Table 3 below.
All the animals were housed in individual cages maintained on their respective diets for 12. weeks and drinking water was provided ad libitum throughout the study period. Daily food intake and weekly body weights, fasting glucose levels were noted. […]
Electroretinogram (ERG) Analysis: Diabetic retinoapthy is characterized by disturbances in retinal function. The retinal function can be assessed by electroretinogram. […]
Animals were dark-adapted for overnight and prepared for the ERG procedure under dim red illumination. […] The oscillatory potentials were extracted from the wave form and the sum of all OPs was calculated.

The subject of assay [2] is STZ-induced diabetic rats. Description: SDS-PAGE protein profiling of lens soluble fraction. As to conditions: vs group-D. The method, then:
(§1) Sodium dodecyl sulfate polyacrylamide gel electrophoresis (SDS-PAGE) and size exclusion chromatography of lens proteins: Subunit profile and cross-linking of soluble proteins were analyzed on 10% polyacrylamide in the presence of sodium dodecyl sulfate (SDS) under reducing conditions. Crystalline distribution in the soluble protein fraction was performed by size exclusion chromatography on a 600×7.5 mm TSK-G4000 SW column (TOSOH Co., Japan) using a HPLC system. The column was equilibrated with 0.1 M sodium phosphate buffer pH 6.7 containing 0.1 M sodium chloride at a flow rate of 1 ml/min.
SDS-PAGE protein profiling: Differences in protein distribution pattern were observed by running the lens protein samples on 12% polyacrylamide gel. 30 μg of protein was loaded per well along with molecular weight marker for SDS-PAGE (Broad range SDS-PAGE marker, BioRad). […] FIG. 3 represents the SDS-PAGE pattern of soluble fraction of lens proteins, as shown in the drawings accompanied with the specification.

In assay [3] the test system is Nerve Growth Factor (NGF). Description: NGF gene expression in retina by real-time PCR. As to conditions: diabetic retina, curcumin 0.01% diet. On the procedure: (§2) Quantitative real-time PCR: Total RNA was extracted from the retina of rats using Tri reagent. Isolated RNA was further purified by RNeasy Mini Kit (Qiagen) and quantified by measuring the absorbance at 260 and 280 nm on ND1000 spectrophotometer (NanoDrop technologies, Delaware, USA). The quality of RNA preparation was assessed by electrophoresis on a denaturing agarose gel. Two μg of total RNA was reverse transcribed using High Capacity cDNA Reverse Transcription kit. Reverse transcription reaction was carried out with a thermocycler (ABI 9700). Real-time polymerase chain reaction (PCR) (ABI-7500) was performed in triplicates with 25 ng cDNA templates using SYBR green master mix with gene specific primers. Normalization and validation of data were carried using (3-actin as an internal control and data were compared between samples according to comparative threshold cycle (2^-ΔΔct) method.
On the technique in general: Real-time PCR tracks product formation cycle by cycle.

The subject of assay [4] is STZ-induced diabetic rats. Description: Size exclusion HPLC of lens soluble protein. As to conditions: vs Group-D. On the procedure:
as §1

The test system of assay [5] is Rhodopsin (Rho). Description: Rhodopsin mRNA in retina by real-time PCR. As to conditions: diabetic retina, curcumin 0.01% diet. On the procedure:
as §2

Assay [6] relates to Rhodopsin (Rho). Description: Rhodopsin protein in retina by immunofluorescence. As to conditions: diabetic retina, curcumin 0.01% diet. The method, then:
(§3) Histopathology: The eye balls from selected animals were collected in fixative 4% paraformaldehyde solution in separately labeled vials. The tissues were given some nicks so as to facilitate penetration of fixative into deep tissue. They were kept at room temperature for 24-48 hrs followed by replacing the fixative with 20 mM sodium phosphate buffer. Buffer was scheduled to be replaced with fresh buffer one each week until histopathological processing. Tissues were embedded in paraffin and sections were taken in microtome. Coated slides are used for immunohistochemistry and immunofluorescence, whereas uncoated slides for hemotoxylin and eosin (H & E) staining.

In assay [7] the test system is STZ-induced diabetic rats. Description: Slit lamp examination and cataract grading (diabetic cataract). As to conditions: end of ten weeks; lutein 0.5% or curcumin 0.01% in diet; Group-D stage 4. The method, then:
Male Wistar strain (WNIN) rats (2 months old; Average BW of 213±14 g) obtained from the National Center for Laboratory Animal Sciences, National Institute of Nutrition, Hyderabad, India (NCLAS, NIN). Animals were maintained at NCLAS, NIN and kept for acclimatization in an experimental room for two weeks. Diabetes was induced in overnight fasted animals by a single intraperitoneal injection of STZ (30 mg/kg) in 0.1 M citrate buffer, pH 4.5. Another set of rats, which received only a vehicle, served as the control (Group I; n=12). Fasting blood glucose levels were measured 72 h after STZ injection. Animals having blood glucose levels >150 mg/dL were considered diabetic and those were only divided into five groups (Group II-VI). A group of control rats (n=6) were fed with 0.01% soluble curcumin (Group VII) and soluble 0.5% lutein alone (Group VIII).
Slit lamp examination and Cataract grading: Eyes were examined every week using a slit lamp bio microscope on dilated pupils. Initiation and progression of lens opacity was graded into five categories (0-4).
Cataract development and progression: Onset and progression of cataract is monitored by slit lamp biomicroscope examination as described below: Eyes were examined every week using a slit lamp biomicroscope (Kowa SL15, Portable, Japan) on dilated pupils.

Assay [8] deals with STZ-induced diabetic rats. As to the kind of experiment: Total and soluble protein in lens homogenate (Lowry). The method, then:
Blood/Lens collection and processing: Blood was drawn once in every week from retro orbital plexus for glucose and insulin estimation. At the end of 12 weeks, animals were sacrificed by CO2 asphyxiation and lenses were dissected by posterior approach and stored at −70° C. until further analysis. A 10% homogenate was prepared from 3-5 pooled lenses in 50 mM phosphate buffer, pH 7.4. All the biochemical parameters were analyzed in the soluble fraction of the lens homogenate (15,000x g at 4° C.) except for lens malondialdehyde (MDA), which was determined in the total homogenate.
Biochemical estimations: Lens MDA, as thiobarbituric acid reacting substances (TBARS) protein carbonyl content were determined according to the methods for estimating the protein carbonyl content described by Suryanarayana P et al. in the research paper “Curcumin and turmeric delay streptozotocin-induced diabetic cataract in rats,” Invest Ophthalmol Vis Sci 2005; 46(6):2092-9. Total, soluble and insoluble protein was assayed by Lowry method using bovine serum albumin (BSA) as standard.
Individual lenses were weighed and pooled into 4 lenses for a pool, and such 4-5 pools were formed per group. A 10% homogenate was prepared in 50 mM sodium phosphate buffer pH 7.4, with tissue homogenizer at intermittent time gaps to avoid excess heat generation. Separate aliquots of total homogenate (TH) were made 250 μl for TBARS assay, 150 μl for sorbitol estimation, and 20 μl for protein estimation. Remaining homogenate was centrifuged at 10,000 RPM for 30 min at 4° C. Supernatant was separated into labelled vials, as total soluble protein (TSP).
Determining soluble percentage of protein in lens homogenate: Protein estimation was done in lens homogenate and soluble fraction by Lowry's method. Amount of protein present per gram weight of lens was calculated. Percentage of soluble protein was calculated by multiplying the fraction of soluble protein by 100.

Assay [9] relates to STZ-induced diabetic rats. Description: Retina histology (H & E), thickness of retinal layers. As to conditions: curcumin 0.01% diet, Table 6. The method, then: as §3
A representative table of retinal layers thickness (in μm) measured by the use of Lieca application suit, Leica, Switzerland. C, Non diabetic control; D, Diabetic control; D+RL, Diabetes+Regular Lutein; D+SL, Diabetes+Soluble Lutein; GCL, ganglion cell layer; IPL, inner plexiform layer; INL, inner nuclear layer; OPL, outer plexiform layer; ONL, outer nuclear layer; PRL, photo receptor layer.

Assay [10] has as its system Nerve Growth Factor (NGF). Description: NGF protein in retina by immunofluorescence. As to conditions: diabetic retina, curcumin 0.01% diet. On the procedure:
as §3

Assay [11] relates to Platelet-derived growth factor (PDGF). Description: PDGF expression in retina by immunohistochemistry. As to conditions: diabetic retina, curcumin 0.01% diet. On the procedure: as §3

Each structure is given as a SMILES string.

As to `COc1cc(/C=C/C(=O)CC(=O)/C=C/c2ccc(O)c(OC)c2)ccc1O` [RC, curcumin], the “sum of OPs (amplitude)” value in [1] stood at 445.7 μV. Besides, the “band of aggregated proteins at ~50 kDa” value in assay [2] was “reduced band intensity”. For the same compound, the NGF gene expression result in assay [3] is “equal beneficiary effect in preventing down regulation of NGF gene”. The “size exclusion profile of total soluble protein (TSP)” value in assay [4] was “normalized the profile of TSP”. In [5], the “mRNA levels of Rho gene” value was “prevented its decline”. In addition, the Rho protein expression result in [6] was “prevented loss of Rho protein expression”. The “severity of cataracts (stage 0-4)” value in assay [7] amounted to 3.0 stage. Further, the “loss of soluble protein compared to group-D” value in assay [8] (lens) is given as “significantly prevented loss of soluble protein”. This compound displayed a Total protein in assay [8] (lens homogenate, mean ± SEM, n = 6, lutein 0.5% or curcumin 0.01% diet, 12 weeks) of 368.50 ± 19.2 mg/gm lens. The compound also registered a Soluble protein in assay [8] (lens soluble fraction, mean ± SEM, n = 6) of 202.63 ± 21.6 mg/gm lens. Further, in [9], the “GCL + IPL thickness” value is listed as 35.692 μ, the INL thickness is given as 13.648 μ, the ONL thickness is given as 30.108 μ and the OPL thickness came to 5.685 μ. In assay [9], the PRL thickness was found to be 19.520 μ and the Total retinal thickness is 106.014 μ. Moreover, in assay [10], the NGF protein result is on record as “prevented loss of NGF protein”. The PDGF expression result in assay [11] is recorded as “inhibited diabetes induced PDGF over expression”.

The values above are taken from US20170143646A1, “EFFECT OF LIPOPHILIC NUTRIENTS ON DIABETIC EYE DISEASES” (OmniActive Health Technologies Limited, priority 2014, published 2017).
